Source: publication PMC7753147, “High-throughput determination of protein affinities using unmodified peptide libraries in nanomolar scale” (iScience, 2020)

Key:
gephE = test: µSPOT peptide microarray binding assay with recombinant gephE
native geph = test: µSPOT peptide microarray binding assay with native geph from mouse brain lysate
FL-geph = test: µSPOT peptide microarray binding assay with full-length geph
[1] = µSPOT peptide microarray, GlyRβ full positional scan, recombinant gephE, intensity normalised to wild-type sequence DLRSNDFSIVGSLPR (=1)
[2] = µSPOT peptide microarray, GlyRβ full positional scan, native geph from mouse brain lysate, intensity normalised to wild-type sequence DLRSNDFSIVGSLPR (=1)
[3] = µSPOT peptide microarray, GlyRβ full positional scan, intensity normalised to wild-type sequence DLRSNDFSIVGSLPR (=1)
[4] = µSPOT full positional scan of GlyRβ 15-mer DLRSNDFSIVGSLPR, intensity normalised to wild-type sequence (= 1)
[5] = µSPOT full positional scan of GlyRβ 15-mer DLRSNDFSIVGSLPR, native geph, intensity normalised to wild-type sequence (= 1)

gephE Binding Intensity [norm.] (gephE; [1])	Native geph Binding Intensity [norm.] (native geph; [2])	Fl-geph Binding Intensity [norm.] (FL-geph; [3])	gephE Binding Intensity [norm.] (gephE; [4])	Native geph Binding Intensity [norm.] (native geph; [5])	Fl-geph Binding Intensity [norm.] (FL-geph; [4])	Sequence
0.66	0.59	0.97	–	–	–	DLRSNDFSITGSLPR [GlyRβ_Full_Positional_Scan_196, GlyR β 414-428 variant V423T]
0.96	1.16	0.92	–	–	–	DQRSNDFSIVGSLPR [GlyRβ_Full_Positional_Scan_040]
–	–	–	0.64	0.37	0.88	DLRSNDFSIVGFLPR [GlyRβ_Full_Positional_Scan_227]
0.81	0.58	0.95	–	–	–	DLRSNVFSIVGSLPR [GlyRβ_Full_Positional_Scan_106]
–	–	–	0.67	0.63	0.99	DLRSNDFSIVGSLAR [GlyRβ_Full_Positional_Scan_261]
0.45	0.36	0.67	–	–	–	DLRSNDFSICGSLPR [GlyRβ_Full_Positional_Scan_197, GlyR β 414-428 variant V423C]
–	–	–	0.8	0.67	1.11	DLRSNDFSIVGSEPR [GlyRβ_Full_Positional_Scan_251]
–	–	–	0.87	1.09	0.74	DLRSNDFSIVGSLPY [GlyRβ_Full_Positional_Scan_289]
0.64	0.43	0.7	–	–	–	DLRSNDFSIFGSLPR [GlyRβ_Full_Positional_Scan_187, GlyR β 414-428 variant V423F]
0.48	0.25	0.66	–	–	–	DLRSNDFPIVGSLPR [GlyRβ_Full_Positional_Scan_145, GlyR β 414-428 variant S421P]
1.06	0.77	1.11	–	–	–	ALRSNDFSIVGSLPR [GlyRβ_Full_Positional_Scan_001]
–	–	–	0.57	0.19	0.67	DLRSNDFSIVGWLPR [GlyRβ_Full_Positional_Scan_228]
0.9	1.69	1.35	–	–	–	DLISNDFSIVGSLPR [GlyRβ_Full_Positional_Scan_043]
–	–	–	0.32	0.28	0.75	DLRSNDFSIVGSLER [GlyRβ_Full_Positional_Scan_271]
0.96	0.96	1	–	–	–	DLRSEDFSIVGSLPR [GlyRβ_Full_Positional_Scan_091]
1.1	0.83	1	–	–	–	HLRSNDFSIVGSLPR [GlyRβ_Full_Positional_Scan_013]
–	–	–	1.06	0.96	0.97	DLRSNDFSIVGSLPV [GlyRβ_Full_Positional_Scan_286]
–	–	–	0.84	0.38	1.07	DLRSNDFSIVGSRPR [GlyRβ_Full_Positional_Scan_252]
–	–	–	1.01	0.79	0.64	DLRSNDFSIVGSLPF [GlyRβ_Full_Positional_Scan_287]
0.58	0.44	0.69	–	–	–	DLRSNDLSIVGSLPR [GlyRβ_Full_Positional_Scan_124, GlyR β 414-428 variant F420L]
0.95	1.3	1.13	–	–	–	DLASNDFSIVGSLPR [GlyRβ_Full_Positional_Scan_041]
0.96	0.98	0.94	–	–	–	DLRSDDFSIVGSLPR [GlyRβ_Full_Positional_Scan_090]

gephE Binding Intensity [norm.] (gephE; [1])	Native geph Binding Intensity [norm.] (native geph; [2])	Fl-geph Binding Intensity [norm.] (FL-geph; [3])	gephE Binding Intensity [norm.] (gephE; [4])	Native geph Binding Intensity [norm.] (native geph; [5])	Fl-geph Binding Intensity [norm.] (FL-geph; [4])	Sequence
0.4	0.18	0.41	–	–	–	DLRSNDFIIVGSLPR [GlyRβ_Full_Positional_Scan_143, GlyR β 414-428 variant S421I]
0.48	0.29	0.52	–	–	–	DLRSNDFSIVISLPR [GlyRβ_Full_Positional_Scan_203, GlyR β 414-428 variant G424I]
0.92	0.98	0.92	–	–	–	DLRFNDFSIVGSLPR [GlyRβ_Full_Positional_Scan_067]
–	–	–	0.75	0.86	0.99	DLRSNDFSIVGGLPR [GlyRβ_Full_Positional_Scan_222]
1.02	1.07	1.08	–	–	–	DLRMNDFSIVGSLPR [GlyRβ_Full_Positional_Scan_078]
–	–	–	1.02	1.08	1.03	DLRSNDFSIVGSLPP [GlyRβ_Full_Positional_Scan_285]
0.43	0.32	0.51	–	–	–	DLRSNDMSIVGSLPR [GlyRβ_Full_Positional_Scan_138, GlyR β 414-428 variant F420M]
0.92	0.91	0.85	–	–	–	DLRSMDFSIVGSLPR [GlyRβ_Full_Positional_Scan_098]
0.89	0.71	0.64	–	–	–	DLRPNDFSIVGSLPR [GlyRβ_Full_Positional_Scan_065]
1.13	1.2	1.04	–	–	–	MLRSNDFSIVGSLPR [GlyRβ_Full_Positional_Scan_018]
0.79	0.32	0.65	–	–	–	DLRSNWFSIVGSLPR [GlyRβ_Full_Positional_Scan_108]
–	–	–	0.92	0.71	1.24	DLRSNDFSIVGSLPK [GlyRβ_Full_Positional_Scan_294]
–	–	–	0.7	0.52	0.93	DLRSNDFSIVGSWPR [GlyRβ_Full_Positional_Scan_248]
0.43	0.22	0.54	–	–	–	DLRSNDFSIVFSLPR [GlyRβ_Full_Positional_Scan_207, GlyR β 414-428 variant G424F]
0.96	0.93	0.83	–	–	–	DLRYNDFSIVGSLPR [GlyRβ_Full_Positional_Scan_069]
–	–	–	0.74	0.49	0.96	DLRSNDFSIVGSLTR [GlyRβ_Full_Positional_Scan_276]
0.93	1.5	1.47	–	–	–	DLPSNDFSIVGSLPR [GlyRβ_Full_Positional_Scan_045]
0.6	0.21	0.73	–	–	–	DLRSNDFSIRGSLPR [GlyRβ_Full_Positional_Scan_192, GlyR β 414-428 variant V423R]
0.98	0.91	0.99	–	–	–	DFRSNDFSIVGSLPR [GlyRβ_Full_Positional_Scan_027]
0.89	0.62	0.77	–	–	–	DLRSRDFSIVGSLPR [GlyRβ_Full_Positional_Scan_092]
0.98	1.12	0.86	–	–	–	DLRANDFSIVGSLPR [GlyRβ_Full_Positional_Scan_061]
0.68	0.27	0.62	–	–	–	DLRSNDFSIWGSLPR [GlyRβ_Full_Positional_Scan_188, GlyR β 414-428 variant V423W]
